These results are taken from ChEMBL document CHEMBL5252638, “Novel triphenylphosphonium amphiphilic conjugates of glycerolipid type: synthesis, cytotoxic and antibacterial activity, and targeted cancer cell delivery” (RSC Med Chem, 2023).

Converted amounts (≈) assume the structure as drawn.

Series [1] relates to Pseudomonas aeruginosa. Briefly: Antimicrobial activity against Pseudomonas aeruginosa ATCC 9027 by serial microdilution method. The format is functional. (In general: Dilution methods test growth across graded concentrations, often in twofold steps.)
The subject of series [2] is Staphylococcus aureus. Briefly: Antimicrobial activity against Staphylococcus aureus ATCC 6538 P FDA 209P by serial microdilution method. The format is functional.
In series [3] the test system is Bacillus cereus. Briefly: Antimicrobial activity against Bacillus cereus ATCC 10702 NCTC 8035 by serial microdilution method. The format is functional.
Series [4] has as its system Enterococcus faecalis. The experiment in a line: Antimicrobial activity against Enterococcus faecalis ATCC 29212 by serial microdilution method. The format is functional.
Series [5] has as its system Escherichia coli. Briefly: Antimicrobial activity against Escherichia coli ATCC 25922 by serial microdilution method. The format is functional.
The test system of series [6] is Staphylococcus aureus. Briefly: Bactericidal against Staphylococcus aureus ATCC 6538 P FDA 209P by serial microdilution method. The class given is functional.
For series [7], the system named is Bacillus cereus. The experiment in a line: Bactericidal activity against Bacillus cereus ATCC 10702 NCTC 8035 by serial microdilution method. The format is functional.
The test system of series [8] is Enterococcus faecalis. The experiment in a line: Bactericidal activity against Enterococcus faecalis ATCC 29212 by serial microdilution method. The class given is functional.
Series [9] relates to Escherichia coli. Briefly: Bactericidal activity against Escherichia coli ATCC 25922 by serial microdilution method. The format is functional.
Series [10] has as its system Pseudomonas aeruginosa. Briefly: Bactericidal against Pseudomonas aeruginosa ATCC 9027 by serial microdilution method. The class given is functional.
The species entered for series [11] is Homo sapiens. Briefly: Selectivity index, ratio of IC50 for human WI-38 cells to IC50 for human SK-OV-3 cells.
The test system of a further series is M-HeLa. The experiment in a line: Cytotoxicity against human HelaM cells assessed as number of viable cells measured after 48 hrs by MTT based colorimetric assay. The format is functional, cell-based.
A further series has as its system MCF7. Briefly: Cytotoxicity against human MCF7 cells assessed as number of viable cells measured after 48 hrs by MTT based colorimetric assay. The class given is functional, cell-based. To be noted: MCF7, 48 h. In general terms: Tetrazolium assays rely on reduction of a dye to a coloured formazan, in cell work by metabolically active cells.
The test system of the next series is HuTu80. The experiment in a line: Cytotoxicity against human HuTu80 cells assessed as number of viable cells measured after 48 hrs by MTT based colorimetric assay. The class given is functional, cell-based. To be noted: HuTu80, 48 h.
A further series concerns PANC-1. The experiment in a line: Cytotoxicity against human PANC-1 cells assessed as number of viable cells measured after 48 hrs by MTT based colorimetric assay. The format is functional, cell-based. To be noted: PANC-1, 48 h.
The subject of another series is A549. The experiment in a line: Cytotoxicity against human A549 cells assessed as number of viable cells measured after 48 hrs by MTT based colorimetric assay. The class given is functional, cell-based. To be noted: A549, 48 h.
The subject of the next series is PC-3. Briefly: Cytotoxicity against human PC-3 cells assessed as number of viable cells measured after 48 hrs by MTT based colorimetric assay. To be noted: PC-3, 48 h. The format is functional, cell-based.
The subject of another series is T98G. Briefly: Cytotoxicity against human T98G cells assessed as number of viable cells measured after 48 hrs by MTT based colorimetric assay. The format is functional, cell-based.
In the next series the test system is HepG2. Briefly: Cytotoxicity against human HepG2 cells assessed as number of viable cells measured after 48 hrs by MTT based colorimetric assay. The class given is functional, cell-based. To be noted: HepG2, 48 h.
A further series concerns SK-OV-3. The experiment in a line: Cytotoxicity against human SK-OV-3 cells assessed as number of viable cells measured after 48 hrs by MTT based colorimetric assay. The class given is functional, cell-based. To be noted: SK-OV-3, 48 h.
The subject of another series is DU-145. The experiment in a line: Cytotoxicity against human DU-145 cells assessed as number of viable cells measured after 48 hrs by MTT based colorimetric assay. The format is functional, cell-based. To be noted: DU-145, 48 h.
Series [12] can be described thus: Cytotoxicity against human WI-38 cells assessed as number of viable cells measured after 48 hrs by MTT based colorimetric assay. The class given is toxicity, cell-based.
Series [13] can be described thus: Cytotoxicity against human Chang liver cells assessed as number of viable cells measured after 48 hrs by MTT based colorimetric assay. The class given is toxicity, cell-based.
The species named for series [14] is Homo sapiens. Briefly: Selectivity index, ratio of IC50 for human WI-38 cells to IC50 for human HelaM cells.
Series [15] is described as follows: Selectivity index, ratio of IC50 for human WI-38 cells to IC50 for human MCF7 cells. The class given is toxicity. To be noted: WI-38 cells and MCF7 cells, read-out: Ratio IC50.
The species named for series [16] is Homo sapiens. Briefly: Selectivity index, ratio of IC50 for human WI-38 cells to IC50 for human HuTu80 cells.
For series [17], the species on record is Homo sapiens. The experiment in a line: Selectivity index, ratio of IC50 for human WI-38 cells to IC50 for human PANC-1 cells.
The nature of series [18]: Selectivity index, ratio of IC50 for human WI-38 cells to IC50 for human PC-3 cells. The format is toxicity. To be noted: WI-38 cells and PC-3 cells, read-out: Ratio IC50.
The species entered for series [19] is Homo sapiens. The experiment in a line: Selectivity index, ratio of IC50 for human Chang liver cells to IC50 for human DU-145 cells.

By MIC is commonly meant the least concentration at which growth counts as inhibited. Low readings indicate inhibition by little substance, high ones a need for much substance. One may read the MBC as the lowest tested concentration that kills the bacteria rather than only halting them. For `CCn1cc(C(=O)O)c(=O)c2cc(F)c(N3CCNCC3)cc21` [NORFLOXACIN], the MIC was 12.1 µM (≈ 3.86 µg/mL) with Pseudomonas aeruginosa [1]; 7.5 µM (≈ 2.4 µg/mL) in the series on Staphylococcus aureus [2]; 24.4 µM (≈ 7.79 µg/mL) in the series on Bacillus cereus [3]; 24.4 µM (≈ 7.79 µg/mL) in the series on Enterococcus faecalis [4]; 4.7 µM (≈ 1.5 µg/mL) against Escherichia coli [5]. The MBC against Staphylococcus aureus [6] stood at 7.5 µM (≈ 2.4 µg/mL); against Bacillus cereus [7], 24.4 µM (≈ 7.79 µg/mL); against Enterococcus faecalis [8] it was 24.4 µM (≈ 7.79 µg/mL); against Escherichia coli [9], 24.4 µM (≈ 7.79 µg/mL); with Pseudomonas aeruginosa [10] it was 49 µM (≈ 15.6 µg/mL).
A word on the IC50: it is the point on the concentration scale where inhibition reaches its midpoint. As to `CCCCC/C=C\C/C=C\CCCCCCCC(=O)OC(COC(=O)CCCCCCC/C=C\CCCCCCCC)COC(=O)CCCC[P+](c1ccccc1)(c1ccccc1)c1ccccc1` (stereo not given), the Ratio IC50 in the series listed under Homo sapiens [11] worked out at 1.9; in the series listed under Homo sapiens [14] it was 1.2; in the series filed under Homo sapiens [16], 10.8; in the series listed under Homo sapiens [17] it was 1.2; in the series listed under Homo sapiens [19] it was 1.9. Further, the IC50 in the series with M-HeLa was 32.1 µM; in the series on MCF7, 25.4 µM; in the series on HuTu80, 3.7 µM; with PANC-1, 33.5 µM; in the series with A549 it was 54.4 µM; in the series on PC-3, 27.8 µM. Further, the IC50 with T98G came out at 73.8 µM; with HepG2 it was 58.2 µM; in the series with SK-OV-3 it was 21 µM; in the series with DU-145 it was 19.2 µM. For the same compound, the IC50 at 48 h in series [12] is 40 µM; in series [13], 36 µM. Also, the selectivity ratio in series [15] stood at 1.6; in series [18] it was 1.4. In addition, the MIC with Staphylococcus aureus [2] was 7.5 µM; against Bacillus cereus [3] it was 7.5 µM; with Escherichia coli [5], 30 µM. In addition, the values for the MBC in the series on Staphylococcus aureus [6], in the series with Enterococcus faecalis [8] and with Escherichia coli [9] were 7.5 µM, 30 µM and 30 µM, respectively.
